Assay: DPPH assay (free-radical scavenging, antioxidant activity)
Assay type: biochemical
Conditions: for AE (×10^−3): anti-free-radical efficiency, obtained from EC50 and TEC50; for TEC50: reaction time necessary to achieve the EC50 value
Experimental: 2,2-Diphenyl-1-picrylhydrazyl is a free radical which is stable in solution. The unpaired electron results in a strong absorption band at 515 nm, and the solution has a dark violet color. In the presence of a free-radical scavenger, the electron is paired, the absorption disappears, and the decoloration proceeds stoichiometrically taking into account the electrons taken up. The absorbance is measured in a photometer. The anti-free-radical property of the substance to be tested is determined by measuring the concentration at which 50% of the 2,2-diphenyl-1-picrylhydrazyl employed has reacted with the free-radical scavenger. This concentration is expressed as EC50, a value which can be considered to be a property of the substance under the given measurement conditions. The substance investigated is compared with a standard (for example tocopherol). The EC50 value here is a measure of the capacity of the respective compound to scavenge free radicals. The lower the EC50 value, the higher the capacity to scavenge free radicals.
A further important aspect for the action of the antioxidants is the time in which this EC50 value is reached. This time, measured in minutes, gives the TEC50 value, which allows a conclusion to be drawn on the rate at which these antioxidants scavenge free radicals.
The antioxidant activity of the compounds according to the invention is determined compared with the activity of quercetin (3,5,7,3′,4′-pentahydroxyflavone) and other conventional antioxidants. The antioxidant activity here is taken to mean the ability to function as hydrogen or electron donor and thus to be able to scavenge free radicals. DPPH assay is used for the determination.
A stock solution of 2,2-diphenyl-1-picrylhydrazyl (DPPH) in ethanol is prepared (0.025 g/l of DPPH-free radicals). Aliquots of this solution are mixed with various concentrations of the compound to be tested. The absorbance is in each case measured at 515 nm, 25° C. and 1 cm.
The lower this value, the higher the corresponding antioxidant activity.
The reaction time necessary to achieve this value is indicated in the value TEC50 (in minutes).
The anti-free-radical efficiency (AE) is obtained from this in accordance with the following relationship: [formula]
A higher AE value here indicates a higher activity against free radicals.

For O=C1c2c(O)cc(O)cc2OC(c2ccc(O)c(O)c2)C1O (stereo not shown) [3,5,7,3′,4′-Pentahydroxyflavanone], the “AE (×10^−3)” value was 5.53 ×10^−3 and the TEC50 was 1200 min.

With O=c1c(O)c(-c2ccc(O)c(O)c2)oc2cc(O)cc(O)c12 [3,5,7,3′,4′-pentahydroxyflavone] the “AE (×10^−3)” value was 18.72 ×10^−3 and the TEC50 was 600 min.

With O=c1cc(-c2ccccc2)oc2cc(O)c(O)c(O)c12 [5,6,7-Trihydroxyflavone/bacalein, 5,6,7-trihydroxyflavone] the “AE (×10^−3)” value was 27.78 ×10^−3 and the TEC50 was 360 min.

With O=c1cc(-c2ccc(O)c(O)c2)oc2ccc(O)cc12 [6,3′,4′-Trihydroxyflavone, 6,3′,4′-trihydroxyflavone] the “AE (×10^−3)” value was 46.30 ×10^−3 and the TEC50 was 180 min.

In the case of O=c1cc(-c2ccc(O)c(O)c2)oc2c(O)c(O)ccc12 [7,8,3′,4′-Tetrahydroxyflavone, 7,8,3′,4′-tetrahydroxyflavone], the “AE (×10^−3)” value is reported as 18.52 ×10^−3 and the TEC50 is reported as 600 min.

In the case of O=C1O[C@H]([C@@H](O)CO)C(O)=C1O [Ascorbic acid], the “AE (×10^−3)” value is reported as 61.72 ×10^−3 and the TEC50 is reported as <60 min.

With COc1cc(/C=C/C(=O)O)ccc1O [Ferulic acid] the “AE (×10^−3)” value was 4.9 ×10^−3 and the TEC50 was 600 min.

In the case of Tocopherol, the “AE (×10^−3)” value is reported as 64.1 ×10^−3 and the TEC50 is reported as <60 min.

Source: patent US20040067894A1, “Preparation having antioxidant properties” (Merck Patent GmbH, priority 2002, published 2004)
